Measured values published in the NIST ThermoML archive (doi:10.1016/j.fluid.2006.05.015).

Assay: mn = molality of the nth substance listed, in mol/kg
Conditions: Liquid, Constant-volume piezometry

[Br-].[K+] [potassium bromide] + O
Conditions	mass density [kg/m3]
298.15 K, 101 kPa, m1 = 0.2378	1017
298.15 K, 101 kPa, m1 = 0.4645	1035.5
298.15 K, 101 kPa, m1 = 0.944	1073.1
298.15 K, 101 kPa, m1 = 2.231	1167.1
298.94 K, 4079 kPa, m1 = 0.944	1074.6
298.94 K, 13886 kPa, m1 = 0.944	1079.1
298.94 K, 28950 kPa, m1 = 0.944	1085.8
303.15 K, 101 kPa, m1 = 0.2378	1015.5
303.15 K, 101 kPa, m1 = 0.4645	1033.8
303.15 K, 101 kPa, m1 = 0.944	1071.4
303.15 K, 101 kPa, m1 = 2.231	1164.9
305.49 K, 3020 kPa, m1 = 0.2378	1016
305.49 K, 10375 kPa, m1 = 0.2378	1019.1
305.49 K, 27594 kPa, m1 = 0.2378	1026.4
308.15 K, 101 kPa, m1 = 0.2378	1013.7
308.15 K, 101 kPa, m1 = 0.4645	1032
308.15 K, 101 kPa, m1 = 0.944	1069.3
308.15 K, 101 kPa, m1 = 2.231	1162.4
308.32 K, 3256 kPa, m1 = 0.4645	1033.3
308.32 K, 10375 kPa, m1 = 0.4645	1036.5
308.32 K, 29078 kPa, m1 = 0.4645	1044.3
310.59 K, 2118 kPa, m1 = 2.231	1162.1
310.59 K, 14710 kPa, m1 = 2.231	1167.8
310.59 K, 19825 kPa, m1 = 2.231	1170.1
310.59 K, 29828 kPa, m1 = 2.231	1174.5
313.15 K, 101 kPa, m1 = 0.2378	1011.8
313.15 K, 101 kPa, m1 = 0.4645	1030.1
313.15 K, 101 kPa, m1 = 0.944	1067.2
313.15 K, 101 kPa, m1 = 2.231	1159.9
318.15 K, 101 kPa, m1 = 0.2378	1009.8
318.15 K, 101 kPa, m1 = 0.4645	1027.9
318.15 K, 101 kPa, m1 = 0.944	1065
318.15 K, 101 kPa, m1 = 2.231	1157.4
323.15 K, 101 kPa, m1 = 0.2378	1007.5
323.15 K, 101 kPa, m1 = 0.4645	1025.6
323.15 K, 101 kPa, m1 = 0.944	1062.5
323.15 K, 101 kPa, m1 = 2.231	1154.8
328.15 K, 101 kPa, m1 = 0.2378	1005.1
328.15 K, 101 kPa, m1 = 0.4645	1023.2
328.15 K, 101 kPa, m1 = 0.944	1060
328.15 K, 101 kPa, m1 = 2.231	1152.1
333.15 K, 101 kPa, m1 = 0.2378	1002.6
333.15 K, 101 kPa, m1 = 0.4645	1020.5
333.15 K, 101 kPa, m1 = 0.944	1057.4
333.15 K, 101 kPa, m1 = 2.231	1149.3
338.15 K, 101 kPa, m1 = 0.2378	999.9
338.15 K, 101 kPa, m1 = 0.4645	1017.8
338.15 K, 101 kPa, m1 = 0.944	1054.6
338.15 K, 101 kPa, m1 = 2.231	1146.4
343.15 K, 101 kPa, m1 = 0.2378	997.1
343.15 K, 101 kPa, m1 = 0.4645	1014.9
343.15 K, 101 kPa, m1 = 0.944	1051.7
343.33 K, 3923 kPa, m1 = 0.4645	1016.4
343.33 K, 9552 kPa, m1 = 0.4645	1018.7
343.33 K, 16550 kPa, m1 = 0.4645	1021.6
343.33 K, 28570 kPa, m1 = 0.4645	1026.7
348.15 K, 101 kPa, m1 = 0.2378	994.2
348.15 K, 101 kPa, m1 = 0.4645	1012
348.15 K, 101 kPa, m1 = 0.944	1048.7
349.79 K, 3334 kPa, m1 = 0.2378	994.6
349.79 K, 11278 kPa, m1 = 0.2378	997.9
349.79 K, 23461 kPa, m1 = 0.2378	1003.1
349.79 K, 29380 kPa, m1 = 0.2378	1005.5
358.08 K, 3668 kPa, m1 = 0.944	1043.1
358.08 K, 10120 kPa, m1 = 0.944	1046.1
358.08 K, 29145 kPa, m1 = 0.944	1054.5
359.48 K, 3824 kPa, m1 = 2.231	1132.6
359.48 K, 10866 kPa, m1 = 2.231	1135.7
359.48 K, 18995 kPa, m1 = 2.231	1139.3
359.48 K, 25870 kPa, m1 = 2.231	1142.3
380.97 K, 3746 kPa, m1 = 0.4645	990.6
380.97 K, 9316 kPa, m1 = 0.4645	993.2
380.97 K, 21042 kPa, m1 = 0.4645	998.6
380.97 K, 29750 kPa, m1 = 0.4645	1002.5
393.11 K, 3256 kPa, m1 = 0.2378	963.5
393.11 K, 10866 kPa, m1 = 0.2378	967.2
393.11 K, 21065 kPa, m1 = 0.2378	972
393.11 K, 26860 kPa, m1 = 0.2378	974.7
400.81 K, 3099 kPa, m1 = 0.944	1010.2
400.81 K, 9061 kPa, m1 = 0.944	1013
400.81 K, 18381 kPa, m1 = 0.944	1017.7
400.81 K, 25438 kPa, m1 = 0.944	1020.8
432.97 K, 4236 kPa, m1 = 2.231	1073.5
432.97 K, 11356 kPa, m1 = 2.231	1077.7
432.97 K, 16570 kPa, m1 = 2.231	1080.7
432.97 K, 22357 kPa, m1 = 2.231	1084
434.09 K, 4805 kPa, m1 = 0.2378	928.1
434.09 K, 9218 kPa, m1 = 0.2378	930.6
434.09 K, 16941 kPa, m1 = 0.2378	935
434.09 K, 28064 kPa, m1 = 0.2378	941.1
453.99 K, 3825 kPa, m1 = 0.4645	925.6
453.99 K, 9140 kPa, m1 = 0.4645	928.9
453.99 K, 16241 kPa, m1 = 0.4645	933.5
453.99 K, 22957 kPa, m1 = 0.4645	937.5
456.48 K, 4158 kPa, m1 = 0.944	959.4
456.48 K, 10120 kPa, m1 = 0.944	963.3
456.48 K, 17148 kPa, m1 = 0.944	967.9
456.48 K, 24027 kPa, m1 = 0.944	972.2
475.7 K, 4903 kPa, m1 = 0.2378	884.5
475.7 K, 10611 kPa, m1 = 0.2378	888.7
475.7 K, 22060 kPa, m1 = 0.2378	896.6
475.7 K, 29860 kPa, m1 = 0.2378	902
482.36 K, 4413 kPa, m1 = 0.4645	893.9
482.36 K, 8571 kPa, m1 = 0.4645	897
482.36 K, 15175 kPa, m1 = 0.4645	902
482.36 K, 20588 kPa, m1 = 0.4645	905.8
483.32 K, 5217 kPa, m1 = 2.231	1024.2
483.32 K, 12082 kPa, m1 = 2.231	1029.2
483.32 K, 22088 kPa, m1 = 2.231	1036.8
483.32 K, 26194 kPa, m1 = 2.231	1039.4
493.15 K, 4413 kPa, m1 = 0.944	918.4
493.15 K, 11591 kPa, m1 = 0.944	923.9
493.15 K, 21454 kPa, m1 = 0.944	931.3
493.15 K, 25284 kPa, m1 = 0.944	934.3
505.79 K, 5786 kPa, m1 = 2.231	999.3
505.79 K, 11846 kPa, m1 = 2.231	1004
505.79 K, 16954 kPa, m1 = 2.231	1007.9
505.79 K, 23854 kPa, m1 = 2.231	1013.5
511.39 K, 6119 kPa, m1 = 0.4645	858.4
511.39 K, 10297 kPa, m1 = 0.4645	862.3
511.39 K, 16047 kPa, m1 = 0.4645	867.8
511.39 K, 24184 kPa, m1 = 0.4645	875.1
520.89 K, 7355 kPa, m1 = 0.944	884.8
520.89 K, 12082 kPa, m1 = 0.944	889.3
520.89 K, 20122 kPa, m1 = 0.944	896.9
534.22 K, 8081 kPa, m1 = 0.2378	809.6
534.22 K, 11356 kPa, m1 = 0.2378	813.5
534.22 K, 23496 kPa, m1 = 0.2378	827
540.44 K, 8571 kPa, m1 = 0.4645	819.8
540.44 K, 11591 kPa, m1 = 0.4645	823.1
540.44 K, 22189 kPa, m1 = 0.4645	836.2
551.72 K, 9140 kPa, m1 = 0.944	842.2
551.72 K, 14533 kPa, m1 = 0.944	848.7
551.72 K, 21645 kPa, m1 = 0.944	857.5
555.7 K, 9708 kPa, m1 = 2.231	941.3
555.7 K, 13965 kPa, m1 = 2.231	946
555.7 K, 19995 kPa, m1 = 2.231	952.8
555.7 K, 23967 kPa, m1 = 2.231	957
579.16 K, 11670 kPa, m1 = 0.944	797.3
579.16 K, 14220 kPa, m1 = 0.944	803
579.16 K, 20665 kPa, m1 = 0.944	816.1
579.16 K, 23665 kPa, m1 = 0.944	822.3
580.61 K, 11023 kPa, m1 = 0.4645	754.1
580.61 K, 12494 kPa, m1 = 0.4645	757.8
580.61 K, 19782 kPa, m1 = 0.4645	773.2
592.65 K, 11234 kPa, m1 = 0.2378	698.5
592.65 K, 13731 kPa, m1 = 0.2378	706.6
592.65 K, 20610 kPa, m1 = 0.2378	725.2
608.09 K, 16573 kPa, m1 = 0.4645	703.4
608.09 K, 17652 kPa, m1 = 0.4645	707.1
608.09 K, 23146 kPa, m1 = 0.4645	725.8
616.41 K, 14847 kPa, m1 = 0.944	714.7
616.41 K, 15769 kPa, m1 = 0.944	727.1
616.41 K, 19875 kPa, m1 = 0.944	753.5
628.63 K, 17475 kPa, m1 = 2.231	841.1
628.63 K, 18221 kPa, m1 = 2.231	844.9
